Measured values: ChEMBL document CHEMBL1146045, “Design of novel, potent, and selective human beta-tryptase inhibitors based on alpha-keto-[1,2,4]-oxadiazoles” (Bioorg Med Chem Lett, 2006)
pKi: −log10 of the molar value. Converted amounts (≈) assume the structure as drawn.

Assays:
[1] = Solubility at pH 7.4; format: physicochemical; conditions: buffer
[2] = target: Trypsin (Homo sapiens, UniProt P07477+P07478+P35030); assay: Inhibition of human trypsin; format: protein assay
[3] = target: Tryptase beta-1 (Homo sapiens, UniProt Q15661); assay: Inhibition of human beta tryptase
[4] = target: T1, hERG (KCNH2) (Homo sapiens, UniProt Q12809); assay: Inhibition of hERG at 1 uM; format: toxicity
[5] = target: Coagulation factor X (Homo sapiens, UniProt P00742); assay: Inhibition of F10a
[6] = Stability in human liver microsome after 1 hr; format: ADME; conditions: liver microsomes, read-out: Stability
[7] = target: Prothrombin (Homo sapiens, UniProt P00734); assay: Inhibition of thrombin
[8] = target: T2, Coagulation factor VII (Homo sapiens, UniProt P08709); assay: Inhibition of F7a
T2 sequence (P08709 whole entry): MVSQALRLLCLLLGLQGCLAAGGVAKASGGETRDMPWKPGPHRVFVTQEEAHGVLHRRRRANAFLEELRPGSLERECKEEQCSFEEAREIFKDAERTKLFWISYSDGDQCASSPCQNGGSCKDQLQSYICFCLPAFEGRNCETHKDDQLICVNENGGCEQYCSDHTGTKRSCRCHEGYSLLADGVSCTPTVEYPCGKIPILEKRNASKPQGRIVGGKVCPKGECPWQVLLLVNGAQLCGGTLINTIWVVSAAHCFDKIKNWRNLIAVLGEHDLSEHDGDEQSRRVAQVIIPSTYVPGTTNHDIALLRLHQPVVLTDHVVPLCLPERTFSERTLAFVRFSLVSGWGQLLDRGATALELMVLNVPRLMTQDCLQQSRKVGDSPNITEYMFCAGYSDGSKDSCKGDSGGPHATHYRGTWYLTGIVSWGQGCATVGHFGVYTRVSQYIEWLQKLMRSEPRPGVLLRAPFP

[9] = target: T1, hERG (KCNH2); assay: Inhibition of hERG at 10 uM; format: toxicity

T1 sequence (Q12809 whole entry): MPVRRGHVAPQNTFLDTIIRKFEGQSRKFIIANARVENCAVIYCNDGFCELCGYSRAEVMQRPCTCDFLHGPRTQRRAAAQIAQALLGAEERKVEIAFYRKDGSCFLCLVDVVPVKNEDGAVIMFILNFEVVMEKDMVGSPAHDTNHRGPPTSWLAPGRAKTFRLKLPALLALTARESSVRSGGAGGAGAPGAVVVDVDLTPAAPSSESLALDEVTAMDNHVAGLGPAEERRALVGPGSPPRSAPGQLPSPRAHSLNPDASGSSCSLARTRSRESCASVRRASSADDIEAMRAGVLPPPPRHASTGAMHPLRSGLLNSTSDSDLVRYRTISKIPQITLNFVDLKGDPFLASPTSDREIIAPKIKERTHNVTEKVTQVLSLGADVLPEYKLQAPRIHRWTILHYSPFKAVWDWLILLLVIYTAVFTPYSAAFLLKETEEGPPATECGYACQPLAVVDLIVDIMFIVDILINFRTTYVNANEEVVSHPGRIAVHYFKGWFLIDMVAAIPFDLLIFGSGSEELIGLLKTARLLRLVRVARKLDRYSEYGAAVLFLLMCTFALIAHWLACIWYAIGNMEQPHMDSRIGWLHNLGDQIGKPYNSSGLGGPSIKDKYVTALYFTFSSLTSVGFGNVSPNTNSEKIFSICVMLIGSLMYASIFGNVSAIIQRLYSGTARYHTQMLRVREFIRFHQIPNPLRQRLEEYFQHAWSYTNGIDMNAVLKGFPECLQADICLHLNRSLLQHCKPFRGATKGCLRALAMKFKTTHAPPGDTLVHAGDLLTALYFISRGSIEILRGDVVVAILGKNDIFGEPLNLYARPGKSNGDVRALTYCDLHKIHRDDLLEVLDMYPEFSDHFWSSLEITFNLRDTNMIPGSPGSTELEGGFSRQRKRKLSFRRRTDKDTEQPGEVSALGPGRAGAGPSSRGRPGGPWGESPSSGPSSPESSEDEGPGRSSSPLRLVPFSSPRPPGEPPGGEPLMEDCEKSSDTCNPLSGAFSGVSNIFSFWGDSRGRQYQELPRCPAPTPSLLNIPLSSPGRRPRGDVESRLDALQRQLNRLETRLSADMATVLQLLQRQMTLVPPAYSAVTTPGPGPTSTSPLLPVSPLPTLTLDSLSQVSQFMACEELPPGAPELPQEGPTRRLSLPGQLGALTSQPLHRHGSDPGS
Sequence of Tryptase beta-1 (Q15661 whole entry): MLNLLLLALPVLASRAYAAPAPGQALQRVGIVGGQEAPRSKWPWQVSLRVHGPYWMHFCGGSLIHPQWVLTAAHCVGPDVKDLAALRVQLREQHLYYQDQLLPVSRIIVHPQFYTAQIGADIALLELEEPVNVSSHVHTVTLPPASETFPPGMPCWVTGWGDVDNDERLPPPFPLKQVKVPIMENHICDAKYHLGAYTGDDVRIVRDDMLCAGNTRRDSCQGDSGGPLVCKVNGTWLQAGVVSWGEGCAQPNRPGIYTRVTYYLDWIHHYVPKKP
Sequence of Coagulation factor X (P00742 41-179 limits assumed): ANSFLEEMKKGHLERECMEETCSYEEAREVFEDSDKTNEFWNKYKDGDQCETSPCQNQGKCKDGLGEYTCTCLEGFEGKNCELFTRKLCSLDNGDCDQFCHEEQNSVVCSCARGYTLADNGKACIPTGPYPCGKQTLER
Sequence of Coagulation factor X (P00742 235-488 limits assumed): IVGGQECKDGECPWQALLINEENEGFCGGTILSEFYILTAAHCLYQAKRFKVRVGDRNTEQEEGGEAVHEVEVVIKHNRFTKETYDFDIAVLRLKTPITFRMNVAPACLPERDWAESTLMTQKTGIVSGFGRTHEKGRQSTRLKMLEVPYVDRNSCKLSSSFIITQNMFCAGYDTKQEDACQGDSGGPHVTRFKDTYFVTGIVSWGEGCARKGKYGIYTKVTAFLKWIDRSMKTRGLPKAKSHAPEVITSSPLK

SMILES: Cc1ccc(CNC(=O)c2ccc(Cc3nc(C(=O)[C@H](CCCCN)NC(=O)OCc4ccccc4)no3)cc2)cc1C
- solubility [1]: 245 µM (≈ 143 µg/mL)
- Ki [2]: 34 nM
- pKi [3]: 7.41

SMILES: NCCCC[C@H](NC(=O)OCc1ccccc1)C(=O)c1noc(CN2CCN(C(=O)OCc3ccccc3)CC2)n1
- Ki [2]: 42 nM
- pKi [3]: 6.33

SMILES: NCCCC[C@H](NC(=O)c1ccc(Cl)cc1)C(=O)c1noc(Cc2ccc(C(=O)NCCc3cccc(Cl)c3)cc2)n1
- Ki [2]: 330 nM
- pKi [3]: 8.72

SMILES: NCCCC[C@H](NC(=O)c1cc(F)cc(F)c1)C(=O)c1noc(Cc2ccc(C(=O)NCCc3cccc(Cl)c3)cc2)n1
- solubility [1]: 313 µM (≈ 191 µg/mL)
- Ki [2]: 410 nM
- pKi [3]: 8.82

SMILES: COc1ccc(Cc2nc(C(=O)[C@H](CCCCN)NC(=O)OCc3ccccc3)no2)cc1
- solubility [1]: 348 µM (≈ 157 µg/mL)
- Ki [2]: 22 nM
- pKi [3]: 6.11

SMILES: NCCCC[C@H](NC(=O)OCc1ccccc1)C(=O)c1noc(Cc2ccc(C(=O)NCCc3cccc(Cl)c3)cc2)n1
- solubility [1]: 109 µM (≈ 65.8 µg/mL)
- Ki [2]: 23 nM
- pKi [3]: 8.74

SMILES: CC(C)(C)C(=O)N[C@@H](CCCCN)C(=O)c1noc(Cc2ccc(C(=O)NCCc3cccc(Cl)c3)cc2)n1
- solubility [1]: 30 µM (≈ 16.6 µg/mL)
- Ki [2]: 470 nM
- pKi [3]: 8.70

SMILES: CC(C)CCNC(=O)c1ccc(Cc2nc(C(=O)[C@H](CCCCN)NC(=O)OCc3ccccc3)no2)cc1
- solubility [1]: 364 µM (≈ 195 µg/mL)
- Ki [2]: 29 nM
- pKi [3]: 8.00
- inhibition at 1 µM [4]: 0%

SMILES: NCCCC[C@H](NC(=O)OCc1ccccc1)C(=O)c1noc(Cc2ccc(C(=O)NC/C=C/c3ccccc3)cc2)n1
- solubility [1]: 226 µM (≈ 131 µg/mL)
- Ki [2]: 18 nM
- pKi [3]: 8.44

SMILES: NCCCC[C@H](NC(=O)OCc1ccccc1)C(=O)c1noc(Cc2ccc(C(=O)NCc3ccccc3)cc2)n1
- solubility [1]: 459 µM (≈ 255 µg/mL)
- Ki [2]: 23 nM
- pKi [3]: 7.43

SMILES: CCOC(=O)N[C@@H](CCCCN)C(=O)c1noc(Cc2ccc(C(=O)NC3Cc4ccccc4C3)cc2)n1
- pKi [5]: 3.85
- remaining at 1 h [6]: 64%
- pKi [7]: 4.22
- Ki [2]: 170 nM
- pKi [8]: < 3.82

SMILES: NCCCC[C@H](NC(=O)OCc1ccccc1)C(=O)c1noc(Cc2ccc(C(=O)NCCOc3ccc(F)cc3)cc2)n1
- solubility [1]: 299 µM (≈ 180 µg/mL)
- Ki [2]: 11 nM
- pKi [3]: 8.54

SMILES: NCCCC[C@H](NC(=O)OCc1ccccc1)C(=O)c1noc(CN2CCN(C(=O)CCc3ccccc3)CC2)n1
- Ki [2]: 33 nM
- pKi [3]: 6.64

SMILES: NCCCC[C@H](NC(=O)OCc1ccccc1)C(=O)c1noc(CN2CCN(CCCc3ccccc3)CC2)n1
- solubility [1]: 329 µM (≈ 181 µg/mL)
- pKi [3]: 7.96

SMILES: NCCCC[C@H](NC(=O)OCc1ccccc1)C(=O)c1noc(Cc2ccc(C(=O)NCCc3ccccc3)cc2)n1
- solubility [1]: 440 µM (≈ 251 µg/mL)
- Ki [2]: 20 nM
- pKi [3]: 8.49

SMILES: NCCCC[C@H](NC(=O)OCc1ccccc1)C(=O)c1noc(Cc2ccc(C(=O)N3CCN(Cc4ccccc4F)CC3)cc2)n1
- solubility [1]: 472 µM (≈ 303 µg/mL)
- Ki [2]: 3.7 nM
- pKi [3]: 6.85

SMILES: NCCCC[C@H](NC(=O)OCc1ccccc1)C(=O)c1noc(CN2CCN(CCCCc3ccccc3)CC2)n1
- remaining at 1 h [6]: 22%
- solubility [1]: 466 µM (≈ 262 µg/mL)
- Ki [2]: 12 nM
- pKi [3]: 8.24

SMILES: NCCCC[C@H](NC(=O)OCc1ccccc1)C(=O)c1noc(Cc2ccc(C(=O)NCCc3ccc(C(F)(F)F)cc3)cc2)n1
- solubility [1]: 227 µM (≈ 145 µg/mL)
- Ki [2]: 27 nM
- pKi [3]: 6.66

SMILES: NCCCC[C@H](NC(=O)OCc1ccccc1)C(=O)c1noc(Cc2ccc(C(=O)NCc3cccc4ccccc34)cc2)n1
- solubility [1]: 77.2 µM (≈ 46.8 µg/mL)
- Ki [2]: 26 nM
- pKi [3]: 7.89

SMILES: NCCCC[C@H](NC(=O)OCc1ccccc1)C(=O)c1noc(Cc2ccc(C(=O)NC3Cc4ccccc4C3)cc2)n1
- pKi [5]: 4.00
- solubility [1]: 206 µM (≈ 120 µg/mL)
- pKi [7]: 4.32
- Ki [2]: 21 nM
- pKi [3]: 8.43
- pKi [8]: 3.85

SMILES: NCCCC[C@H](NC(=O)OCc1ccccc1)C(=O)c1noc(Cc2ccc(C(=O)NCCc3cc(F)cc(F)c3)cc2)n1
- solubility [1]: 333 µM (≈ 202 µg/mL)
- Ki [2]: 18 nM
- pKi [3]: 8.46

SMILES: NCCCC[C@H](NC(=O)c1ccc2c(c1)OCO2)C(=O)c1noc(Cc2ccc(C(=O)NCCc3cccc(Cl)c3)cc2)n1
- solubility [1]: 337 µM (≈ 208 µg/mL)
- Ki [2]: 330 nM
- pKi [3]: 8.68

SMILES: NCCCC[C@H](NC(=O)c1ccc(F)cc1)C(=O)c1noc(Cc2ccc(C(=O)NCCc3cccc(Cl)c3)cc2)n1
- solubility [1]: 390 µM (≈ 231 µg/mL)
- Ki [2]: 240 nM
- pKi [3]: 8.74

SMILES: NCCCC[C@H](NC(=O)c1cccc(F)c1)C(=O)c1noc(Cc2ccc(C(=O)NCCc3cccc(Cl)c3)cc2)n1
- solubility [1]: 422 µM (≈ 250 µg/mL)
- Ki [2]: 280 nM
- pKi [3]: 8.77

SMILES: CCOC(=O)N[C@@H](CCCCN)C(=O)c1noc(Cc2ccc(C(=O)NCCc3cccc(Cl)c3)cc2)n1
- solubility [1]: 471 µM (≈ 255 µg/mL)
- Ki [2]: 180 nM
- pKi [3]: 8.72

SMILES: NCCCC[C@H](NC(=O)OCc1ccccc1)C(=O)c1noc(CN2CCN(C(=O)CCCc3ccccc3)CC2)n1
- remaining at 1 h [6]: 2%
- solubility [1]: > 500 µM
- Ki [2]: 22 nM
- pKi [3]: 7.47
- inhibition at 10 µM [9]: 2.3%

SMILES: NCCCC[C@H](NC(=O)OCc1ccccc1)C(=O)c1noc(Cc2ccc(C(=O)NCCCCc3ccccc3)cc2)n1
- solubility [1]: 188 µM (≈ 112 µg/mL)
- Ki [2]: 14 nM
- pKi [3]: 7.22

SMILES: NCCCC[C@H](NC(=O)OCc1ccccc1)C(=O)c1noc(Cc2ccc(C(=O)NCCc3cccs3)cc2)n1
- solubility [1]: 484 µM (≈ 279 µg/mL)
- Ki [2]: 13 nM
- pKi [3]: 8.62
- inhibition at 10 µM [9]: 7.2%

SMILES: NCCCC[C@H](NC(=O)OCc1ccccc1)C(=O)c1noc(Cc2ccc(C(=O)NCc3ccc4ccccc4c3)cc2)n1
- solubility [1]: 100 µM (≈ 60.6 µg/mL)
- Ki [2]: 15 nM
- pKi [3]: 7.96

SMILES: NCCCC[C@H](NC(=O)c1ccc(F)c(F)c1)C(=O)c1noc(Cc2ccc(C(=O)NCCc3cccc(Cl)c3)cc2)n1
- solubility [1]: 349 µM (≈ 213 µg/mL)
- Ki [2]: 440 nM
- pKi [3]: 8.77

SMILES: NCCCC[C@H](NC(=O)OCc1ccccc1)C(=O)c1noc(Cc2ccc(C(=O)NCCCc3ccccc3)cc2)n1
- solubility [1]: 370 µM (≈ 216 µg/mL)
- Ki [2]: 19 nM
- pKi [3]: 8.52

SMILES: NCCCC[C@H](NC(=O)OCc1ccccc1)C(=O)c1noc(Cc2ccc(OCCc3ccccc3)cc2)n1
- solubility [1]: 23 µM (≈ 12.5 µg/mL)
- inhibition at 1 µM [4]: 40%

SMILES: NCCCC[C@H](NC(=O)OCc1ccccc1)C(=O)c1noc(Cc2ccc(C(=O)NCCc3cccc(C(F)(F)F)c3)cc2)n1
- solubility [1]: 284 µM (≈ 181 µg/mL)
- Ki [2]: 30 nM
- pKi [3]: 8.09

SMILES: NCCCC[C@H](NC(=O)OCc1ccccc1)C(=O)c1noc(Cc2ccc(C(=O)NCCc3ccc(Cl)c(Cl)c3)cc2)n1
- Ki [2]: 31 nM
- pKi [3]: 7.80
